{"source": "patent US10258073B2", "about": "“Functional nutritional blend for thermo-metabolic performance” (priority 2016, dated 2019)", "test_system": "Mouse 3T3-L1 pre adipocytes", "assay": "Cell viability by Sulforhodamine B (SRB) assay", "format": "cell-based", "conditions": "72 h", "method": "Cell culture: Mouse immortalised 3T3-L1 pre adipocytes were cultured in 5% CO2 at 37° C. in growth media consisting of Dulbecco's Modified Eagles Medium (DMEM) containing 10% heat-inactivated fetal calf serum with 40 μg/mL of gentamycin 5×10^3 cells were seeded per well in a 96 well plate and allowed to grow as a confluent monolayer.\nMouse 3T3-L1 pre adipocytes were cultured in DMEM containing 10% heat-inactivated foetal calf serum. 5000 cells were seeded in 96 well culture plates and allowed to form adhere and form a monolayer. Test compounds were added at different concentrations and incubated for 72 hours at 37° C. and 5% CO2. Cells were fixed using 10% trichloroacetic acid (TCA) solution at 4° C. for one hour. SRB solution (0.4%) was added to the wells and incubated for 30 minutes at room temperature. Excess dye was washed 5 times with 1% acetic acid. 100 μl of 10 mM trizma base was added to the wells to solubilize the SRB. Absorbance was read using a microplate reader at a wave length of 492 nm. The absorbance of cells with growth media was considered as 100% viable and percentage viability was calculated based on this reading.", "data": [{"smiles": "O=C(/C=C/C=C/c1ccc2c(c1)OCO2)N1CCCCC1", "note": "[Piperine]", "values": [{"measurement": "Non-toxic concentration", "value": 25, "unit": "µg/mL"}]}]}
